This is an account of results in US11760758B2 (The Trustees of Columbia University in the City of New York, priority 2018, dated 2023).

Like-named read-outs stand apart in the source and are kept apart here.

Assay [1] concerns the target T1, human MOR (Homo sapiens, UniProt P35372).
T1 construct: host or cells: HEK-293T
Kind of assay: BRET functional assay for G protein activation at hMOR. Format: cell-based. As to conditions: for Agonist activity at hMOR (in words): compared to DAMGO.

In another assay the target is T2, mouse DOR (Mus musculus, UniProt P32300).
T2 construct: expressed in transfected cells; membranes
Description: Radioligand competition binding ([125I]BNtxA), CHO membranes, DOR. The settings on record: for Ki: mean +/- SE, n = 3, CHO transfected with mouse opioid receptors. For orientation: Displacement assays read how much labelled ligand stays bound in the presence of the test substance.

For another assay, the target named is T3, mouse KOR (Mus musculus, UniProt P33534).
T3 construct: expressed in transfected cells; membranes
Description: Radioligand competition binding ([125I]BNtxA), CHO membranes, KOR. As to conditions: for Ki: mean +/- SE, n = 3, CHO transfected with mouse opioid receptors.

For assay [2], the target named is T4, mouse MOR (Mus musculus, UniProt P42866). Description: Radioligand competition binding ([125I]BNtxA), CHO membranes, MOR. As to conditions: for Ki: mean +/- SE, n = 3, CHO transfected with mouse opioid receptors.
Assay [3] concerns the target T4, mouse MOR. Kind of assay: cAMP sensor CAMYEL functional assay at mMOR. In kind it is cell-based. The settings on record: for Agonist activity at mMOR (in words): mMOR CAMYEL assay. Further details: host or cells: HEK-293T.
Assay [4] addresses T1, human MOR. The settings on record: Kruegel, et al. 2016; cited from earlier work.
[5] abbreviates: EC50 (nM), Table 1, mitragynine series, hMOR G protein BRET, 95% confidence limits in brackets.
Setting [6] is: Table 1, mitragynine series, hMOR G protein BRET, normalized to DAMGO Emax = 100%.
Where [7] appears, read: Table 2, MG-EG series, hMOR G protein BRET, normalized to DAMGO Emax = 100%.
Where [8] appears, read: Table 3, 7-OH series, hMOR G protein BRET, normalized to DAMGO Emax = 100%.

A word on the EC50: it is the concentration giving half of the maximal effect. The term Emax denotes the size of the effect at its maximum, as opposed to the concentration needed. In turn, `CC[C@@H]1CN2CCc3c([nH]c4cc(F)cc(OC)c34)[C@@H]2C[C@@H]1/C(=C\OC)C(=O)OC` [Compound 13, 11-fluoro-MG] yielded an EC50 at human MOR [1] (setting [5]) of 81.5 nM. At human MOR [1] (setting [6]), this molecule came in with a maximal response (Emax) of 49%.

On human MOR [1] (setting [7]), `CC[C@@H]1CN2CC[C@@]34OCCO[C@@]3(Nc3cc(F)cc(OC)c34)[C@@H]2C[C@@H]1/C(=C\OC)C(=O)OC` [Compound 2, 11-Fluoromitragynine-ethylene glycol adduct] showed an Emax of under 20%. Besides, the “Agonist activity at hMOR (in words)” value at human MOR [1] (hMOR G protein BRET) is “negligible agonist activity”.

Broadly, the Ki is the equilibrium dissociation constant of an inhibitor or competing ligand from its target. Read a high Ki as lower affinity. Turning to `CC[C@@H]1CN2CC[C@@]3(O)C(=Nc4cc(F)cc(OC)c43)[C@@H]2C[C@@H]1/C(=C\OC)C(=O)OC` [Compound 24, 11-Fluoro-7-hydroxymitragynine], the values for the inhibition constant (Ki) at mouse DOR, at mouse KOR and at mouse MOR [2] were 0.0358 ± 0.00201 µM, 0.021 ± 0.00326 µM and 0.0137 ± 0.00101 µM, respectively. The “Affinity for DOR relative to 7-OH, 23” value on mouse DOR (ratio of affinity vs 7-OH (23)) is listed as over 2 fold. Besides, the “Affinity at KOR relative to parent compound 23” value on mouse KOR (ratio of affinity vs 7-OH (23)) is given as “six times greater”. The 50% effective concentration (EC50) at human MOR [1] (EC50 (nM), Table 3, 7-OH series, hMOR G protein BRET, 95% confidence limits in brackets) worked out at 3.98 nM; at mouse MOR [3] (Table 5, 7-OH series, mMOR CAMYEL cAMP assay, 95% confidence limits in brackets, read-out: EC50), 0.0151 µM. The maximal response (Emax) was 47% at human MOR [1] (setting [8]) and 63.8% at mouse MOR [3]. Moreover, the “Gain in affinity at mMOR relative to parent 7-OH, 23” value on mouse MOR [2] (ratio of affinity vs 7-OH (23)) is reported as “approximately 2 fold”.

At human MOR [1], `CC[C@@H]1CN2CC[C@@]34OCCO[C@@]3(Nc3cc(O)cc(OC)c34)[C@@H]2C[C@@H]1/C(=C\OC)C(=O)OC` [Compound 6, 11-hydroxy-MG-EG] yielded an EC50 of 11.3 nM and an Emax of 67.4%.

With `CC[C@@H]1CN2CC[C@@]3(O)C(=Nc4cccc(OC)c43)[C@@H]2C[C@@H]1/C(=C\OC)C(=O)OC` [Compound 23, 7-hydroxymitragynine, reference compound], the Ki on mouse DOR was determined as 0.0885 ± 0.00986 µM; at mouse KOR, 0.119 ± 0.00214 µM; on mouse MOR [2], 0.0215 ± 0.00081 µM. The maximal effect (Emax) on human MOR [1] (setting [8]) was 88%; at mouse MOR [3] it was 92.4%. On mouse MOR [3], this molecule showed a half-maximal effective concentration (EC50) of 0.013 µM.

Turning to `CC[C@@H]1CN2CC[C@@]34OCCO[C@@]3(Nc3cccc(OC)c34)[C@@H]2C[C@@H]1/C(=C\OC)C(=O)OC` [Compound 1, mitragynine-ethylene glycol adduct, reference compound], the EC50 on human MOR [1] (EC50 (nM), Table 2, MG-EG series, hMOR G protein BRET, 95% confidence limits in brackets) turned out to be 14.8 nM. Also, the Emax at human MOR [1] (setting [7]) is 56.2%. The “Agonist activity at hMOR (in words)” value at human MOR [1] (hMOR G protein BRET) is “partial agonist”.

As for `CC[C@@H]1CN2CCc3c([nH]c4cccc(OC)c34)[C@@H]2C[C@@H]1/C(=C\OC)C(=O)OC` [Compound 12, mitragynine, reference compound], the “Agonist activity at hMOR (in words), previously shown” value on human MOR [4] is given as “partial agonist”. Moreover, the maximal effect (Emax) on human MOR [1] (setting [6]) was 26.5%.

The molecule `CC[C@@H]1CN2CCc3c([nH]c4cc(Cl)cc(OC)c34)[C@@H]2CC1/C(=C\OC)C(=O)OC` (stereo partly shown) [Compound 14, 11-Chloromitragynine] yielded an EC50 on human MOR [1] (setting [5]) of 327 nM. The Emax on human MOR [1] (setting [6]) was found to be 33.4%.

In the case of `CC[C@@H]1CN2CC[C@@]3(O)C(=Nc4cc(Br)cc(OC)c43)[C@@H]2C[C@@H]1/C(=C\OC)C(=O)OC` [Compound 26, 11-bromo-7-OH], the Ki on mouse DOR amounted to 0.0577 ± 0.00666 µM; at mouse KOR, 0.0811 ± 0.00711 µM; at mouse MOR [2], 0.0324 ± 0.00142 µM. The maximal effect (Emax) at human MOR [1] (setting [8]) and at mouse MOR [3] was under 20% throughout. Moreover, on human MOR [1] (hMOR G protein BRET), the “Agonist activity at hMOR (in words)” value is on record as “agonist activity was abolished”. In addition, the “Agonist activity at mMOR (in words)” value on mouse MOR [3] is recorded as “not agonists”.

The molecule `CC[C@@H]1CN2CCc3c([nH]c4cc(Br)cc(OC)c34)[C@@H]2C[C@@H]1/C(=C\OC)C(=O)OC` [Compound 15, 11-bromo-MG] had a maximum response (Emax) at human MOR [1] (setting [6]) of under 20%. Moreover, the “Agonist activity at hMOR (in words)” value on human MOR [1] (hMOR G protein BRET) is listed as “no/negligible agonist activity”.

For `CC[C@@H]1CN2CC[C@@]34OCCO[C@@]3(Nc3cc(Br)cc(OC)c34)[C@@H]2C[C@@H]1/C(=C\OC)C(=O)OC` [Compound 4, 11-bromo-MG-EG], the Emax at human MOR [1] (setting [7]) was under 20%. The “Agonist activity at hMOR (in words)” value on human MOR [1] (hMOR G protein BRET) is on record as “negligible agonist activity”.

Turning to `CC[C@@H]1CN2CC[C@@]3(O)C(=Nc4cc(Cl)cc(OC)c43)[C@@H]2C[C@@H]1/C(=C\OC)C(=O)OC` [Compound 25, 11-chloro-7-OH], the Ki at mouse DOR came to 0.0472 ± 0.00236 µM; on mouse KOR, 0.0306 ± 0.0114 µM; at mouse MOR [2], 0.0271 ± 0.00112 µM. The Emax at human MOR [1] (setting [8]) and at mouse MOR [3] was under 20% in each case. In addition, at human MOR [1] (hMOR G protein BRET), the “Agonist activity at hMOR (in words)” value is given as “agonist activity was abolished”. Moreover, the “Agonist activity at mMOR (in words)” value on mouse MOR [3] is “not agonists”.

Molecule `CC[C@@H]1CN2CC[C@@]34OCCO[C@@]3(Nc3cc(Cl)cc(OC)c34)[C@@H]2C[C@@H]1/C(=C\OC)C(=O)OC` [Compound 3, C11-Chloromitragynine-ethylene glycol adduct] came in with a maximal response (Emax) on human MOR [1] (setting [7]) of under 20%. Also, the “Agonist activity at hMOR (in words)” value at human MOR [1] (hMOR G protein BRET) is “negligible agonist activity”.
